Measurements published in US8957017B2, “Dipeptoid prodrugs and their use” (Bayer Intellectual Property GmbH, priority 2007, dated 2015).
Structures can show the parent of a compound that is named as a salt.

Experiments:
[1] = Stability in buffer at various pH values; type: physicochemical
Procedure: b) Stability in Buffer at Various pH Values:
0.3 mg of the test substance is weighed into a 2 ml HPLC vial and 0.5 ml of acetonitrile or acetonitrile/DMSO (9:1) is added. The substance is dissolved by putting the sample vessel in an ultrasonic bath for about 10 seconds. Then 0.5 ml of the respective buffer solution is added, and the sample is again treated in the ultrasonic bath.
pH 2: 0.03 mol of citric acid, 0.061 mol of sodium chloride and 0.0082 mol of hydrochoric acid ad 1 liter of water;
pH 4: 1 liter of Millipore water is adjusted to pH 4.0 with 1 N hydrochloric acid;
pH 5: 0.096 mol of citric acid and 0.2 mol of sodium hydroxide ad 1 liter of water;
pH 6: 0.06 mol of citric acid and 0.16 mol of sodium hydroxide ad 1 liter of water;
pH 7.4: 90.0 g of sodium chloride, 13.61 g of potassium dihydrogen phosphate and 83.35 g of 1 N sodium hydroxide solution are made up to 1 liter with water; this solution is then further diluted 1:10 with Millipore water.
pH 8: 0.013 mol of borax and 0.021 mol of hydrochloric acid ad 1 liter of water.
5 μl portions of the test solution are analyzed by HPLC for their content of unchanged test substance, and of parent substance (A) produced, every hour over a period of 24 hours at 37° C. The percentage areas of the appropriate peaks are used for quantification.
The ratios of the peak areas (F) at the respective time points in relation to the peak areas at the starting time are shown in Table 2 for representative exemplary embodiments: […]

[2] = Determination of the solubility in 5% strength aqueous dextrose solution; type: physicochemical; conditions: saline or isotonic, thermodynamic from solid; for solubility thermodynamic at 24 h: room temperature
Procedure: a) Determination of the Solubility:
The test substance is suspended in 5% strength aqueous dextrose solution. This suspension is shaken at room temperature for 24 h. After ultracentrifugation at 224 000 g for 30 min, the supernatant is diluted with DMSO and analysed by HPLC. A two-point calibration plot of the test compound in DMSO is used for quantification.
Agilent 1100 with DAD (G1315A), quat. Pump (G1311A), autosampler CTC HTS PAL, degasser (G1322A) and column thermostat (G1316A); column: Phenomenex Gemini C18, 5 μm, 50 mm×2 mm; temperature: 40° C.; eluent A: water/phosphoric acid pH 2, eluent B: acetonitrile; flow rate: 0.7 ml/min; gradient: 0-0.5 min 85% A, 15% B; ramp 0.5-3 min 10% A, 90% B; 3-3.5 min 10% A, 90% B; ramp 3.5-4 min 85% A, 15% B; 4-5 min 85% A, 15% B.
Agilent 1100 with DAD (G1315A), quat. pump (G1311A), autosampler CTC HTS PAL, degasser (G1322A) and column thermostat (G1316A); column: VDSoptilab Kromasil 100 C18, 3.5 μm, 60 mm×2.1 mm; temperature: 30° C.; eluent A: water+5 ml of perchloric acid/liter, eluent B: acetonitrile; flow rate: 0.75 ml/min; gradient: 0-0.5 min 98% A, 2% B; ramp 0.5-4.5 min 10% A, 90% B; 4.5-6 min 10% A, 90% B; ramp 6.5-6.7 min 98% A, 2% B; 6.7-7.5 min 98% A, 2% B.

[3] = tested on: heart rate of anesthetized rats; assay: Influence on the heart rate of anesthetized rats; type: in vivo; conditions: maximum decrease in the first 30 min after i.v. bolus of 100 μg/kg of (A) or equivalent dosages; anesthetized male Wistar rats
Procedure: f) Determination of the Influence on the Heart Rate of Anesthetized Rats:
Male Wistar rats with a body weight above 250 g are employed. In the night before the experiment, the animals receive no feed but still have free access to drinking water. Preparation and investigations are carried out under Trapanal® anesthesia (100 mg/kg i.p.). Injection and infusion take place through a catheter in the jugular vein, and the blood pressure is recorded via a catheter in the femoral artery (transducer: Braun, Melsungen). After the preparation, the animals are connected to a continuous infusion of physiological saline solution to compensate fluid losses. Test substance or placebo solution are administered as bolus after an equilibration time of about 1 h. Heart rate and arterial blood pressure are recorded during the equilibration and over a period of at least 30 min after the bolus injection with the aid of a digital evaluation program.
Table 4 lists the maximum heart rate decrease in the first 30 min after an i.v. bolus of 100 μg/kg of the active substance (A) or of equivalent dosages of representative exemplary embodiments: […]

SMILES	% test substance after 4 h [F(t = 4 h) × 100/F(t = 0 h)] ([1]; pH 4, 37° C.) [%]	% test substance after 24 h [F(t = 24 h) × 100/F(t = 0 h)] ([1]; pH 4, 37° C.) [%]	% test substance after 4 h [F(t = 4 h) × 100/F(t = 0 h)] ([1]; pH 7.4, 37° C.) [%]	% test substance after 24 h [F(t = 24 h) × 100/F(t = 0 h)] ([1]; pH 7.4, 37° C.) [%]	solubility thermodynamic at 24 h [2] [µg/mL]	% test substance after 24 h [F(t = 24 h) × 100/F(t = 0 h)] ([1]; pH 4, 37° C., disodium salt) [%]	% test substance after 24 h [F(t = 24 h) × 100/F(t = 0 h)] ([1]; pH 7.4, 37° C., disodium salt) [%]	solubility at 24 h [2] [µg/mL]	Heart rate decrease [3] [%]
CC(C)C[C@H](NC(=O)[C@@H](N)CCCCN)C(=O)OCCOc1ccc(-c2c(C#N)c(N)nc(SCc3csc(-c4ccc(Cl)cc4)n3)c2C#N)cc1 [Example 11, 2-{4-[2-Amino-6-({[2-(4-chlorophenyl)-1,3-thiazol-4-yl]methyl}sulfanyl)-3,5-dicyanopyridin-4-yl]-phenoxy}ethyl L-lysyl-L-leucinate dihydrochloride]	100	100	90	55	> 500				
CC(C)[C@H](NC(=O)CCN)C(=O)OCCOc1ccc(-c2c(C#N)c(N)nc(SCc3csc(-c4ccc(Cl)cc4)n3)c2C#N)cc1 [Example 2, 2-{4-[2-Amino-6-({[2-(4-chlorophenyl)-1,3-thiazol-4-yl]methyl}thio)-3,5-dicyanopyridin-4-yl]-phenoxy}ethyl β-alanyl-L-valinate hydrochloride]	100	100	100	100					
C[C@H](NC(=O)[C@@H](N)Cc1cnc[nH]1)C(=O)OCCOc1ccc(-c2c(C#N)c(N)nc(SCc3csc(-c4ccc(Cl)cc4)n3)c2C#N)cc1 [Example 15, 2-{4-[2-Amino-6-({[2-(4-chlorophenyl)-1,3-thiazol-4-yl]methyl}sulfanyl)-3,5-dicyanopyridin-4-yl]-phenoxy}ethyl L-histidyl-L-alaninate dihydrochloride]					450				
CC(C)[C@H](NC(=O)[C@@H](N)CCCNC(=N)N)C(=O)OCCOc1ccc(-c2c(C#N)c(N)nc(SCc3csc(-c4ccc(Cl)cc4)n3)c2C#N)cc1 [Example 3, 2-{4-[2-Amino-6-({[2-(4-chlorophenyl)-1,3-thiazol-4-yl]methyl}thio)-3,5-dicyanopyridin-4-yl]-phenoxy}ethyl L-arginyl-L-valinate dihydrochloride]	100	100	99	55	450				
N#Cc1c(N)nc(SCc2csc(-c3ccc(Cl)cc3)n2)c(C#N)c1-c1ccc(OCCOC(=O)[C@H](Cc2ccccc2)NC(=O)[C@@H](N)CCCCN)cc1 [Example 18, 2-{4-[2-Amino-6-({[2-(4-chlorophenyl)-1,3-thiazol-4-yl]methyl}sulfanyl)-3,5-dicyanopyridin-4-yl]-phenoxy}ethyl L-lysyl-L-phenylalaninate dihydrochloride]					450				
C[C@H](NC(=O)[C@@H](N)CCCNC(=N)N)C(=O)OCCOc1ccc(-c2c(C#N)c(N)nc(SCc3csc(-c4ccc(Cl)cc4)n3)c2C#N)cc1 [Example 14, 2-{4-[2-Amino-6-({[2-(4-chlorophenyl)-1,3-thiazol-4-yl]methyl}sulfanyl)-3,5-dicyanopyridin-4-yl]-phenoxy}ethyl L-arginyl-L-alaninate dihydrochloride]	100	100	68	8	> 500				
N#Cc1c(N)nc(SCc2csc(-c3ccc(Cl)cc3)n2)c(C#N)c1-c1ccc(OCCOC(=O)CC[C@@H](N)C(=O)NCCN)cc1 [Example 13, 2-{4-[2-Amino-6-({[2-(4-chlorophenyl)-1,3-thiazol-4-yl]methyl}sulfanyl)-3,5-dicyanopyridin-4-yl]-phenoxy}ethyl N-(2-aminoethyl)-D-α-glutaminate dihydrochloride]	100	99	24	0	> 500				
N#Cc1c(N)nc(SCc2csc(-c3ccc(Cl)cc3)n2)c(C#N)c1-c1ccc(OCCOC(=O)CNC(=O)[C@@H](N)CCCCN)cc1 [Example 17, 2-{4-[2-Amino-6-({[2-(4-chlorophenyl)-1,3-thiazol-4-yl]methyl}sulfanyl)-3,5-dicyanopyridin-4-yl]-phenoxy}ethyl L-lysylglycinate dihydrochloride]					> 500				
N#Cc1c(N)nc(SCc2csc(-c3ccc(Cl)cc3)n2)c(C#N)c1-c1ccc(OCCOC(=O)CC[C@H](NC(=O)CCC(=O)O)C(=O)O)cc1 [Example 10, (2S)-5-(2-{4-[2-Amino-6-({[2-(4-chlorophenyl)-1,3-thiazol-4-yl]methyl}thio)-3,5-dicyanopyridin-4-yl]phenoxy}ethoxy)-2-[(3-carboxypropanoyl)amino]-5-oxopentanoic acid disodium salt]					390	99	99		
N#Cc1c(N)nc(SCc2csc(-c3ccc(Cl)cc3)n2)c(C#N)c1-c1ccc(OCCOC(=O)CC[C@H](NC(=O)CCC(=O)O)C(=O)O)cc1 [Example 9, (2S)-5-(2-{4-[2-Amino-6-({[2-(4-chlorophenyl)-1,3-thiazol-4-yl]methyl}thio)-3,5-dicyanopyridin-4-yl]phenoxy}ethoxy)-2-[(3-carboxypropanoyl)amino]-5-oxopentanoic acid]	100	100	100	100					
C[C@@H](NC(=O)[C@@H](N)CCCCN)C(=O)OCCOc1ccc(-c2c(C#N)c(N)nc(SCc3csc(-c4ccc(Cl)cc4)n3)c2C#N)cc1 [Example 12, 2-{4-[2-Amino-6-({[2-(4-chlorophenyl)-1,3-thiazol-4-yl]methyl}sulfanyl)-3,5-dicyanopyridin-4-yl]-phenoxy}ethyl L-lysyl-D-alaninate dihydrochloride]	99	98	49	2	> 500				
N#Cc1c(N)nc(SCc2csc(-c3ccc(Cl)cc3)n2)c(C#N)c1-c1ccc(OCCO)cc1 [compound (A), 2-amino-6-({[2-(4-chlorophenyl)-1,3-thiazol-4-yl]methyl}thio)-4-[4-(2-hydroxy-ethoxy)phenyl]pyridine-3,5-dicarbonitrile, reference compound]								< 0.1	24
